Laboratory results: patent US10857128B2, “Methods and compositions for treating inflammatory diseases” (Helmholtz Zentrum München Deutsches Forschungszentrum für …, priority 2017, dated 2020)

Tests used:
[1] = tested on: allergic airway inflammation; test: Ovalbumin-induced allergic airway inflammation (AAI) in mice with oral D-tryptophan; format: in vivo, Balb/c mice
Description: Isolation of intestinal lamina propria cells. Total colons were excised from mice, removed from mesenteries, opened longitudinally and cut into 2 cm long pieces that were incubated for 30 min in 30 mM EDTA in PBS on ice and then shaken vigorously with PBS to remove epithelial cells. After further cutting into small pieces with sharp scissors these were digested at 37° C. in RMPI supplemented with 1 mg/mL collagenase D (Roche Diagnostics, Mannheim, Germany) and 10 mg/ml DNAse I (Sigma-Aldrich, St. Louis, USA). Cells were separated by a 40/80% (w/v) Percoll (GE Healthcare, Chalfont St. Giles, UK) density centrifugation step and washed prior to staining for flow cytometry analysis.
Costimulatory molecules on human DCs. The following primary monoclonal antibodies were used: CD83 fluorescein isothiocyanate (FITC); CD1a phycoerythrin (PE); CD86-FITC; CD80-PE; CD14 allophycocyanine (APC); CD40-APC; CD3-peridinin chlorophyll protein (PerCP); HLA-DR-PerCP; mouse immunoglobulins G1 (IgG1) mouse immunoglobulins G1 (IgG1) κ were used as isotype controls using the corresponding fluorochromes (all purchased from BD Biosciences, Heidelberg, Germany). To account for donor dependent variability of DC surface markers, all data were normalized to the expression induced by LPS which was set to 100% after subtraction of background values (FACS Canto, FACS DIVA software, Version 5.0.3, BD Biosciences, Heidelberg, Germany). Murine DC subsets and CD4^+ T cells. Single cell suspensions of splenocytes were obtained by filtering spleens through a 70 μm strainer. Samples were stained with CD3-PB (1:200, Biolegend, San Diego, USA), CD4-APC-H7 (BD, 1:400), CD11c-APC-Cy7 (1:100), Mhc-II-Percp-Cy5 (1:100), CD11b-FITC (1:100), CD80-AF647, CD40-APC (1:100). For intracellular cytokines, total spleen cells were stimulated with anti-CD3 (4 μg/mL, BD Bioscience, Heidelberg, Germany) and anti-CD28 (30 ng/mL, BD Bioscience, Heidelberg, Germany) for 16 h. 1×10^6 of total lung cells were stimulated for 16 h with MACSiBead particles coated with anti-CD3 and anti-CD28 using the T cell activation/expansion kit (Miltenyi Biotec, Bergisch Gladbach, Germany) in TexMACS medium (Miltenyi Biotec) according to the manufactures recommendations. Prior to staining, cells were treated with monensin (0.7 μL/mL, BD Golgi Stop, BD Bioscience, Heidelberg, Germany) for 6 h at 37° C. and intracellularly stained for II-4-PE (1:100, eBioscience, Vienna, Austria according to the manufacturer's protocols. Intracellular staining for Foxp3 was performed by using the Foxp3/Transcription Factor Staining buffer set (eBiosciences, Vienna, Austria) according to the manufacturer's recommendations.
Assessment of cytokines by cytometric bead array. Levels of II4, II5 and II13 were analysed in BALF and cell culture supernatants using an enhanced cytometric bead array (eCBA, Fex Set Kits, BD Biosciences, Franklin Lakes, N.J., USA) according to the manufacturer's guidelines.
Murine regulatory T cells. Cells were preincubated with Fc-Block (BD Bioscience, Heidelberg, Germany) for 5 min and stained for 20 min with the following antibodies: FITC-conjugated anti-CD3, Alexa-Fluor700-conjugated anti-CD4 and APC-eFluor780-conjugated CD45.2. For intracellular staining, cells were fixed and permeabilized with a commercially available fixation/permeabilization buffer (eBioscience, Vienna, Austria). LIVE/DEAD fixable Aqua dead stain kit (Invitrogen, Carlsbad, USA) was used prior to fixation. Intracellular staining was performed with PerCP-Cy5.5-conjugated anti-Foxp3 and Helios. Gates were set on live CD45^+CD3^+CD4^+ T cells. All antibodies were from eBioscience (Vienna, Austria). Cells were analyzed with a flow cytometer (Fortessa and LSRII, BD Bioscience, Heidelberg, Germany) and analyzed with Flowjo software (Flowjo LLC, Ashland, USA).
Induction of allergic airway inflammation. […]

[2] = Oral supplementation of mice with D-tryptophan in drinking water: serum levels and tolerability; format: in vivo, Balb/c mice; conditions: 14 days
Description: Enantiomeric separation of D-Tryptophan in murine sera. The investigator (C.M.) was blinded to the murine intervention groups. Due to the abundance of interfering proteins a protein precipitation was done. For this purpose the sera were thawed on ice and 20 μL of each sample were vigorously shaken with 80 μL 4° C. methanol (Chromasolve, Fluka, St. Louis, USA) and centrifuged (15,000×g at 4° C. for 15 min). The supernatants were taken, evaporated and resolved in water before injection. The derivation was performed as described for bacterial supernatants with some modifications as recently published (Müller et al., J Chromatogr A. 2014 Jan. 10; 1324:109-14). For quantification human serum was spiked with different concentrations (0.005-0.15 μg/mL) of D-Tryptophan and randomly analyzed.
Animals and oral supplementation with D-tryptophan. […]

[3] = AAI mice, 50 mM in drinking water

N[C@H](Cc1c[nH]c2ccccc12)C(=O)O [D-tryptophan]
Helios+ Treg (lung) [1, 3]: significantly increased | II-4 producing T cells (lung) [1, 3]: reduced | Ifn-g-producing Th1 cells (lung) [1, 3]: not | airway hyperreactivity to methacholine [1, 3]: improved | eosinophils in BALF [1, 3]: reduction | total Foxp3+ cells (lung) [1, 3]: remained unchanged | total BALF cells ([1]; AAI mice, 50 mM in drinking water from 3 days before sensitization): lowered | II-4 levels in BALF ([1]; AAI mice, 50 mM in drinking water, (trend)): reduced | frequency of Foxp3+ T cells in the colon ([1]; supplemented AAI mice compared to non-supplemented AAI mice): locally increased | changes in behavior or body weight ([2]; 1.8 or 18 mg/dL in drinking water, compared to controls): No changes | D-tryptophan serum levels ([2]; oral 0.9 mg/day in drinking water): increased D-tryptophan serum levels significantly
